Laboratory results published in patent US11814444B2, “Cyclic polypeptides for PCSK9 inhibition” (Ra Pharmaceuticals, Inc., priority 2018, dated 2023).
Numbered stars: 1 amine (or outer) side, 2 acyl side, 3 side chain; on linkers, the order of the positions; unused ones are H or OH. Bridge positions count the residues as written; N and C are the ends. Square brackets hold non-standard residues; d marks the D form. Peptide text beside a SMILES is read from it. X6 = CC(=O)Oc1ccc2c(c1)CN([*:1])[C@H](C(=O)[*:2])C2; Ala(1H-tetrazol-5-yl) = N[C@@H](Cc1nnn[nH]1)C(=O)O; Phe(4-CF3) = N[C@@H](Cc1ccc(C(F)(F)F)cc1)C(=O)O; Pyridine(2,6-diCH2) = c1cc(C[*:1])nc(C[*:2])c1; Trp(5-F) = N[C@@H](Cc1c[nH]c2ccc(F)cc12)C(=O)O; Trp(7-aza) = N[C@@H](Cc1c[nH]c2ncccc12)C(=O)O; mXylylene = c1cc(C[*:1])cc(C[*:2])c1; Aad = N[C@@H](CCCC(=O)O)C(=O)O; Tle = CC(C)(C)[C@H](N)C(=O)O; αMeV = CC(C)[C@](C)(N)C(=O)O; S5 = C=CCCC[C@](C)(N)C(=O)O; Ac5c = NC1(C(=O)O)CCCC1; Nva = CCC[C@H](N)C(=O)O; Thp = NC1(C(=O)O)CCOCC1; Ac3c = NC1(C(=O)O)CC1; Aib = CC(C)(N)C(=O)O; Mpa = O=C(O)CCS

Columns and labels:
[1] = biological target: human PCSK9 / human LDLR EGFa domain interaction (Homo sapiens, UniProt Q8NBP7); test: TR-FRET assay of inhibition of the PCSK9-LDLR protein-protein interaction; format: binding; details: 20 nM avitag-biotinylated human PCSK9, 20 nM his-tagged human LDLR EGFa domain, 2 hours, room temperature
Outline: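 Compounds in dose-response are mixed with 20 nM human PCSK9 (avitag-biotinylated) and 20 nM his-tagged LDLR EGFa domain, plus 5 nM each streptavidin-Ulight and Eu-anti-6×His. After 2 h at room temperature in HEPES/NaCl/CaCl2 buffer with BSA and P20, TR-FRET is read and IC50 fitted (4-parameter).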

PCSK9 = PCSK9 (Homo sapiens, UniProt Q8NBP7); test: PCSK9 Alexa FRET Standard assay (displacement of AlexaFluor647 tagged cyclic peptide Reagent A); format: binding; details: 0.5 nM PCSK9, 20 nM AF cyclic peptide Reagent A
Procedure: A solution containing 1 nM biotinylated PCSK9+2.5 nM Lance Streptavidin Europium (Strep-Eu) was made in 50 mM HEPES pH 7.4, 0.15 M NaCl, 5 mM CaCl2), 0.01% BSA, and 0.01% Surfactant P20. A separate solution containing 40 nM of the AlexaFluor tagged cyclic peptide was made in the same buffer system. An Echo was used to transfer 0.750 ul of compound to an assay plate followed by the addition of 15 ul of PCSK9+Stept-Eu and 15 ul of AF peptide. The final assay volume was 30.750 ul containing 0.5 nM PCSK9, 1.25 nM Strep-Eu, and 20 nM AF cyclic peptide. The reaction was incubated at room temperature for at least two hours prior to fluorescence measurements using an Envision Multilabel Reader. IC50 values were determined by fitting data to a sigmoidal dose-response curve using nonlinear regression. Ki was then calculated from the IC50 and the KD of AF cyclic peptide. Counts (B-counts) of the europium-labeled PCSK9 were followed to observe if compounds were […]. A fall off of the B-counts likely indicated a false positive of inhibition. Data from this procedure was reported as “A=‘numerical value’ (nanomolar)”

Chain of PCSK9 (Q8NBP7 153-692): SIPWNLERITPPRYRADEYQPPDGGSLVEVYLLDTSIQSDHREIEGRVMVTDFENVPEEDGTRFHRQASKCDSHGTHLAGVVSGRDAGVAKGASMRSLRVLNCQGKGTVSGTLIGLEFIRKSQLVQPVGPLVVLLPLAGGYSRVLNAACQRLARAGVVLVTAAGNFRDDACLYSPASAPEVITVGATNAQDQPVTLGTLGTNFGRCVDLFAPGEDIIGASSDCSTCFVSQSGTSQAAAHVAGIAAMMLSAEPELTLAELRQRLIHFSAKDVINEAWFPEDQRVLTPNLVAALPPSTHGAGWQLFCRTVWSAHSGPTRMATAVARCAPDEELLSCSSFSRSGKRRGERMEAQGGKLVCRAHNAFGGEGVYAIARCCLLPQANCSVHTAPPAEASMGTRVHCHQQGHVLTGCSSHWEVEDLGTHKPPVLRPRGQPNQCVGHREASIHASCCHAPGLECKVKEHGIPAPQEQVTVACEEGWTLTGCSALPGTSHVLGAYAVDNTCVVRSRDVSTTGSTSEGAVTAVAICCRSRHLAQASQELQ
Chain of human PCSK9 / human LDLR EGFa domain interaction (Q8NBP7 153-692): as above
Chain of human PCSK9 / human LDLR EGFa domain interaction (Q8NBP7 31-152 partner limits assumed): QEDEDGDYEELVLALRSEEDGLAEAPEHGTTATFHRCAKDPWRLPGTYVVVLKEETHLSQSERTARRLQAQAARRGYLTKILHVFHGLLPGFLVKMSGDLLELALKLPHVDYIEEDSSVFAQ

IC50 [1] [µM]	IC50 (PCSK9) [µM]	Structure (SMILES)
1 to 21	1 to 21	CCC[C@@H]1NC(=O)[C@H](Cc2c[nH]c3ncccc23)NC(=O)[C@H]([C@@H](C)O)NC(=O)[C@H](Cc2c[nH]cn2)NC(=O)[C@H](Cc2ccc(O)cc2)NC(=O)[C@H](C(C)(C)C)NC(=O)CCSCc2cccc(c2)CSC[C@@H](C(N)=O)NC(=O)[C@H]([C@@H](C)O)NC(=O)[C@H](CCC)NC(=O)[C@H](Cc2c[nH]c3ccc(F)cc23)NC(=O)[C@H](CCC(=O)O)NC1=O [Compound 261] ([Mpa][Tle]YHT[Trp(7-aza)][Nva]E[Trp(5-F)][Nva]TC-NH2; linker 1-12 via mXylylene)
0.1 to 1	0.1 to 1	CCC[C@@H]1NC(=O)[C@H](Cc2c[nH]c3ncccc23)NC(=O)[C@H]([C@@H](C)O)NC(=O)[C@@H]2CCCN2C(=O)[C@H](Cc2ccc(O)cc2)NC(=O)[C@H](C(C)(C)C)NC(=O)[C@@H](NC(C)=O)CCCC(=O)NCCCC[C@@H](C(N)=O)NC(=O)[C@H]([C@@H](C)O)NC(=O)[C@H](CCC)NC(=O)[C@@H]2Cc3ccc(OC(C)=O)cc3CN2C(=O)[C@H](C)NC1=O [Compound 074] (Ac-[Aad][Tle]YPT[Trp(7-aza)][Nva]A[X6][Nva]TK-NH2; lactam 1-12)
1 to 21	1 to 21	CCC[C@@H]1NC(=O)[C@H](Cc2c[nH]c3ncccc23)NC(=O)[C@H]([C@@H](C)O)NC(=O)[C@@H]2CCCN2C(=O)[C@H](Cc2ccc(O)cc2)NC(=O)[C@H](C(C)(C)C)NC(=O)CCSCc2cccc(c2)CSC[C@@H](C(N)=O)NC(=O)[C@H]([C@@H](C)O)NC(=O)[C@H](CCC)NC(=O)[C@H](Cc2ccc(O)cc2)NC(=O)[C@H](CCC(=O)O)NC1=O [Compound 155] ([Mpa][Tle]YPT[Trp(7-aza)][Nva]EY[Nva]TC-NH2; linker 1-12 via mXylylene)
0.1 to 1	1 to 21	CCC[C@@H]1NC(=O)[C@H](Cc2c[nH]c3ncccc23)NC(=O)[C@H]([C@@H](C)O)NC(=O)[C@H](Cc2c[nH]cn2)NC(=O)[C@H](Cc2ccc(O)cc2)NC(=O)[C@H](C(C)(C)C)NC(=O)CCSCc2cccc(c2)CSC[C@@H](C(N)=O)NC(=O)[C@H]([C@@H](C)O)NC(=O)[C@H](CCC)NC(=O)[C@H](Cc2ccc(O)cc2)NC(=O)[C@H](Cc2nnn[nH]2)NC1=O [Compound 253] ([Mpa][Tle]YHT[Trp(7-aza)][Nva][Ala(1H-tetrazol-5-yl)]Y[Nva]TC-NH2; linker 1-12 via mXylylene)
0.1 to 1	0.001 to 0.1	CCC[C@H](NC(=O)[C@@H](NC(=O)[C@@H](NC(=O)[C@H](Cc1ccc(O)cc1)NC(=O)[C@@H]1CSCc2cccc(n2)CSC[C@H](NC(=O)[C@@H](NC(=O)[C@H](CCC)NC(=O)[C@H](CCCCN)NC(C)=O)[C@@H](C)CC)C(=O)N[C@@H](Cc2ccc(O)cc2)C(=O)NCC(=O)NCC(=O)N[C@@H](CC(=O)O)C(=O)N1)[C@@H](C)CC)[C@@H](C)CC)C(N)=O [Compound 055] (Ac-K[Nva]ICYGGDCYII[Nva]-NH2; linker 4-9 via Pyridine(2,6-diCH2))
21 to 50	1 to 21	CC(=O)N[C@H]1CSCc2cccc(c2)CSC[C@@H](C(N)=O)NC(=O)[C@H]([C@@H](C)O)NC(=O)[C@](C)(C(C)C)NC(=O)[C@H](Cc2ccc(O)cc2)NC(=O)[C@H](C)NC(=O)C2(CCOCC2)NC(=O)[C@H](Cc2c[nH]c3ncccc23)NC(=O)[C@H]([C@@H](C)O)NC(=O)[C@@H]2CCCN2C(=O)[C@H](Cc2ccc(O)cc2)NC(=O)[C@H](C(C)(C)C)NC1=O [Compound 181] (Ac-C[Tle]YPT[Trp(7-aza)][Thp]AY[αMeV]TC-NH2; linker 1-12 via mXylylene)
0.1 to 1	0.001 to 0.1	CC(=O)N[C@H]1CSCc2cccc(c2)CSC[C@@H](C(N)=O)NC(=O)[C@H]([C@@H](C)O)NC(=O)[C@](C)(C(C)C)NC(=O)[C@H](Cc2ccc(O)cc2)NC(=O)[C@H](C)NC(=O)C2(CCCC2)NC(=O)[C@H](Cc2c[nH]c3ncccc23)NC(=O)[C@H]([C@@H](C)O)NC(=O)[C@@H]2CCCN2C(=O)[C@H](Cc2ccc(O)cc2)NC(=O)[C@H](C(C)(C)C)NC1=O [Compound 184] (Ac-C[Tle]YPT[Trp(7-aza)][Ac5c]AY[αMeV]TC-NH2; linker 1-12 via mXylylene)
0.1 to 1	1 to 21	CCC[C@@H]1NC(=O)[C@H](Cc2c[nH]c3ncccc23)NC(=O)[C@H]([C@@H](C)O)NC(=O)[C@H](Cc2c[nH]cn2)NC(=O)[C@H](Cc2ccc(O)cc2)NC(=O)[C@H](C(C)(C)C)NC(=O)[C@@H](NC(C)=O)CSCc2cccc(c2)CSC[C@@H](C(N)=O)NC(=O)[C@H]([C@@H](C)O)NC(=O)[C@H](CCC)NC(=O)[C@H](Cc2ccc(O)cc2)NC(=O)[C@H](CCC(=O)O)NC1=O [Compound 235] (Ac-C[Tle]YHT[Trp(7-aza)][Nva]EY[Nva]TC-NH2; linker 1-12 via mXylylene)
0.1 to 1	1 to 21	CCC[C@@H]1NC(=O)[C@H](Cc2ccc(O)cc2)NC(=O)[C@H](CCC(=O)O)NC(=O)[C@H](CCC)NC(=O)[C@H](Cc2c[nH]c3ncccc23)NC(=O)[C@H]([C@@H](C)O)NC(=O)[C@H](Cc2c[nH]cn2)NC(=O)[C@H](Cc2ccc(O)cc2)NC(=O)[C@H](C(C)(C)C)NC(=O)CCSCc2cccc(c2)CSC[C@@H](C(N)=O)NC(=O)[C@H](Cc2c[nH]cn2)NC1=O [Compound 247] ([Mpa][Tle]YHT[Trp(7-aza)][Nva]EY[Nva]HC-NH2; linker 1-12 via mXylylene)
1 to 21	1 to 21	CCC[C@@H]1NC(=O)[C@H](Cc2c[nH]c3ncccc23)NC(=O)[C@H]([C@@H](C)O)NC(=O)[C@H](Cc2c[nH]cn2)NC(=O)[C@H](Cc2ccc(O)cc2)NC(=O)[C@H](C(C)(C)C)NC(=O)CCSCc2cccc(c2)CSC[C@@H](C(N)=O)NC(=O)[C@H]([C@@H](C)O)NC(=O)[C@H](CCC)NC(=O)[C@H](Cc2ccc(C(F)(F)F)cc2)NC(=O)[C@H](CCC(=O)O)NC1=O [Compound 260] ([Mpa][Tle]YHT[Trp(7-aza)][Nva]E[Phe(4-CF3)][Nva]TC-NH2; linker 1-12 via mXylylene)
21 to 50	1 to 21	C=CCCC[C@]1(C)NC(=O)[C@H](CCC)NC(=O)[C@H](Cc2ccc(O)cc2)NC(=O)[C@H](C)NC(=O)C(C)(C)NC(=O)[C@H](Cc2c[nH]c3ncccc23)NC(=O)[C@H]([C@@H](C)O)NC(=O)[C@@H]2CCCN2C(=O)[C@H](Cc2ccc(O)cc2)NC(=O)[C@H](C(C)(C)C)NC(=O)[C@@H](NC(C)=O)CCCC(=O)NCCCC[C@@H](C(N)=O)NC1=O [Compound 053] (Ac-[Aad][Tle]YPT[Trp(7-aza)][Aib]AY[Nva][S5]K-NH2; lactam 1-12)
0.001 to 0.1	0.001 to 0.1	CC(=O)N[C@H]1CSCc2cccc(c2)CSC[C@H](C(N)=O)NC(=O)[C@H]([C@@H](C)O)NC(=O)[C@](C)(C(C)C)NC(=O)[C@H](Cc2ccc(O)cc2)NC(=O)[C@H](C)NC(=O)C2(CC2)NC(=O)[C@H](Cc2c[nH]c3ncccc23)NC(=O)[C@H]([C@@H](C)O)NC(=O)[C@@H]2CCCN2C(=O)[C@H](Cc2ccc(O)cc2)NC(=O)[C@H](C(C)(C)C)NC1=O [Compound 191] (Ac-C[Tle]YPT[Trp(7-aza)][Ac3c]AY[αMeV]T[dC]-NH2; linker 1-12 via mXylylene)
